Data from patent publication US20210161929A1, “USES OF VERBASCOSIDE IN TREATMENT OF DIABETIC-ASSOCIATED KDINEY INJURY AND DIABETIC-ASSOCIATED LIVER INJURY” (NANJING UNIVERSITY OF CHINESE MEDICINE, priority 2018, published 2021).

Assays:
[1] = tested on: HK-2 cells; assay: Proliferation of high-glucose induced HK-2 cells; type: cell-based, human; conditions: for effect on the proliferation of HK-2: in vitro studies, discussion; for OD / inhibition ratio %: 48 hours
Method: (§1) Human renal tubular epithelial cells (HK-2) were provided by Nanjing KeyGEN Biotechnology Development Co., Ltd. The complete medium was a low-sugar DMEM with 10% FBS and 1% penicillin-streptomycin solution. The cells were cultured at 37° C. under 5% CO2 and saturated humidity in an incubator. Cells were spread in a 96-well plate and cultured with a 5 mmol/Llow-sugar DMEM for 24 hours. […] The number of cells in each group was detected using a cell counting method after 48 hours of the incubation.

[2] = tested on: NOX1, NOX2, NOX4, α-SMA, E-cadherin, NF-κB p65, TGF-β1, Smad2, Smad3, Smad4 and Smad7 in HK-2 cells; assay: Protein expression in high-glucose induced HK-2 cells (Western blotting); type: cell-based, human; conditions: for effect on the formation of EMT: in vitro studies, HK-2, discussion
Method: as §1, with “The expression quantity of related proteins and mRNA in each cell is detected using Western blotting method and Real-time PCR, and the secretion of related factors in cell supernatant is detected using ELISA. […] Human” for “Human”

[3] = tested on: db/db mice; assay: Biochemical indexes of db/db mice after 6 weeks of intragastric administration; type: in vivo; conditions: ig once a day for 6 weeks, metformin 250, irbesartan 50, verbascoside 70.8 mg·kg^−1·d^−1
Method: 32 male db/db mice and 10 male db/m mice of SPF grade, aged 6-8 weeks and weighing 25-40 g, were purchased from Nanjing Biomedical Research Institute of Nanjing University with an animal license number of SCXK (Su 2015-0001).The mice were raised in an animal room under alternating light and dark every 12 hours with constant temperature of 22±2° C. and humidity of 55±10%.
All mice were adaptively fed for 3 weeks, and db/m mice were used as a control group with a total number of 10. Db/db mice were randomly divided into four groups according to blood sugar and body weight each of 8 mice, and the four groups respectively were a model group (M), a metformin group (EJSG, 250 mg·kg^−1·d^−1), an irbesartan group (EBST, 50 mg·kg^−1·d^−1) and a verbascoside group (MRHTG, 70.8 mg·kg^−1·d^−1). The same amount of saline was intragastrically administered(ig) to the mice in the control group and the model group, and the volume of intragastric administration (ig) was 10 mL·kg^−1, and such administration was performed once a day for continuous 6 weeks.
One day before the end of the experiment, urine was collected in a metabolic cage for 12 hours and the urine volume was recorded. Microalbuminuria content was measured and fasting blood glucose (FBG) of mice in each group was measured by tail vein blood sampling. After drug intervention, mice were anesthetized with intraperitoneal injection of 10% chloral hydrate, and blood was collected from eyeballs. The blood was centrifuged at 3000 rpm and 4° C. for 10 minutes to obtain a serum. The serum was then subjected to determination of serum creatinine, blood urea nitrogen, blood insulin, cholesterol, triglyceride, glutamic-pyruvic transaminase and glutamic-oxalacetic transaminase contents.

[4] = tested on: kidneys of db/db mice; assay: Pathological sections of kidney (HE, PAS) of db/db mice; type: in vivo; conditions: 6 weeks, irbesartan 50, verbascoside 70.8 mg·kg^−1·d^−1
[5] = tested on: db/db mice serum; assay: Serum metabonomics (UPLC-QTOF/MS, PLS-DA) of db/db mice; type: in vivo; conditions: mouse serum, mean ± SD, n = 6; for Relative distance between administration group and control group in PLS-DA score plot, ESI −: negative ion mode, model group 43.46 ± 3.15; for Relative distance between administration group and control group in PLS-DA score plot, ESI +: positive ion mode, model group 36.62 ± 3.28
Method: After 6 weeks of administration, each of the mice was subjected to blood collection by removing eyeballs. The blood sample was centrifuged at 4° C. and 3000 rpm for 10 minutes to obtain a serum. 100 μL of the frozen-thawed serum was mixed uniformly with 300 μL of acetonitrile under vortex for 2 minutes to produce a mixture. The mixture was centrifuged at 4° C. and 13000 rpm for 10 minutes, and the protein precipitate was removed while the supernatant was collected for determination.
Chromatographic conditions: ACQUITY™UPLC BEH C18 column (2.1 mm×100 mm, 1.7 μm); and mobile phase: 0.1% formic acid aqueous solution (A)−acetonitrile (B). The gradient elution of serum was programmed as follows: 0-3 minutes, 95%-55% A; […], 55%-5% A; 13-14 minutes, 5% A. The injection volume was 2 μL and a column temperature of 35° C. was employed.
Mass spectrometry conditions: ESI ion source (ESI^+/ESI^−); mass scanning range: 100-1000 m/z; a capillary voltage of 3.0 kV and a cone voltage of 30 V; an extraction voltage of 2.0 V; ion source temperature and desolvation temperature: respectively 120° C. and 350° C.; cone gas flow rate: 50 L/h; collision energy: 20-50 eV; desolvation gas flow rate: 600 L/h; activation time: 30 ms; and collision gas: high-purity nitrogen. Leucine-enkephalin (ESI^−: 555.2615 m/z, ESI^+: 556.2771 m/z) solution of 200 pg/mL was used as a mass-locking solution at a flow rate of 100 μL/min.
The obtained original mass spectrometry data was processed using Masslynx v4.1 software. The main parameters included: retention time range: 0-14 minutes; m/z range: 100-1000; mass tolerance range: 0.01 Da; peak intensity threshold: 50; mass window: 0.05 Da; retention time window: 0.2 minutes; and automatic detection of 5% peak height and noise. The intensity of each ion was normalized relative to the total ion count to produce a data list consisting of retention time, m/z value and standardized peak area. The data were imported into EZinfo 2.0 for supervised partial least squares discriminant analysis (PLS-DA) and orthogonal partial least squares discriminant analysis (OPLS-DA). The separation of various metabolites between the control group and the model group was shown in the OPLS-DA plot. Potential biomarkers were extracted from the S-plot constructed after OPLS-DA analysis, and each point in the S-plot represented the information of the corresponding variable. The variable importance in the projection (VIP) was measured by the magnitude of the VIP value. The variables were screened according to the VIP value, and the variable with VIP>1 may be selected as a potential biomarker and the molecular formula of the variable of significant difference between the model group and the control group was further identified. Cross validation parameters R^2Y and Q^2were used to describe the PLS-DA score plot, which represented the total explanatory variables of the […] and the predictability of the model, respectively. When a cumulative value of R^2Y and Q^2 was greater than 0.8, the model may be considered to be reliable. The relative distances between other groups and the control group in the PLS-DA score plot were calculated using the average values of all samples (X and Y axes) of the control group as reference points. This quantitative value can be used as an evaluation index of pharmacodynamics and metabonomics to solve many problems in lacking of accurate and quantitative evaluation methods for pharmacodynamics. SPSS 21.0 software was used for statistical analysis of the relevant data. T-test analysis was performed among groups to verify the significance of the difference of potential biomarkers in different groups. The data were expressed as mean±SD, and the data were considered to have a statistical significance with P<0.05. […]

[6] = tested on: HK-2 cells; assay: Morphology of high-glucose induced HK-2 cells; type: cell-based, human; conditions: 50 μmol/L, 48 hours
[7] = tested on: NOX1, NOX2, NOX4, α-SMA, E-cadherin, NF-κB p65, TGF-β1, Smad2, Smad3, Smad4 and Smad7 in HK-2 cells; assay: mRNA expression in high-glucose induced HK-2 cells (Real-time PCR); type: cell-based, human; conditions: 50 μmol/L, HK-2 cells with high glucose-induced injuries
Excerpt: (§2) In the present invention, human renal tubular epithelial (HK-2) cells are selected to establish a high sugar-induced HK-2 cell injury model, and TLR capsules, TLR extract and its major active components verbascoside and catalpol are used for intervention. The expression quantity of related proteins and mRNA in each cell is detected using Western blotting method and Real-time PCR, and the secretion of related factors in cell supernatant is detected using ELISA. In addition, the effect of TLR on regulating oxidative stress reactions of HK-2 cells and TGF-β/smad signal pathway is further explored.
as §1

[8] = tested on: MCP-1, IL-1β, TNF-α and IL-6 in supernatant of HK-2 cells; assay: Secretion of inflammatory factors in supernatant of HK-2 cells (ELISA); type: cell-based, human; conditions: 50 μmol/L, HK-2 cells with high glucose-induced injuries
Excerpt: as §2, §1

[9] = rats; cited from earlier work
[10] = tested on: nephrotoxic nephritis rats model; conditions: cited from earlier work
[11] = 50 μmol·L^−1, high glucose 30 mmol/L
[12] = 10 μmol·L^−1, high glucose 30 mmol/L
[13] = 25 μmol·L^−1, high glucose 30 mmol/L
[14] = 100 μmol·L^−1, high glucose 30 mmol/L

## OC[C@H]1O[C@@H](O[C@@H]2OC=C[C@H]3[C@H](O)[C@@H]4O[C@]4(CO)[C@@H]23)[C@H](O)[C@@H](O)[C@@H]1O [catalpol, reference compound]
[1]
  effect on the proliferation of HK-2: had an effect on inhibiting
[2]
  effect on the formation of EMT: had an effect on inhibiting

## CCCCC1=NC2(CCCC2)C(=O)N1Cc1ccc(-c2ccccc2-c2nnn[nH]2)cc1 [irbesartan, reference compound]
[3]
  contents of FBG, T-CHO, TG, GOT, GPT, INS, BUN, mALB and Scr: tended to be normal
[4]
  results of histological examination of kidney (HE, PAS mean OD): close to those of the control group
[5]
  Relative distance between administration group and control group in PLS-DA score plot, ESI −: 32.16 ± 10
  Relative distance between administration group and control group in PLS-DA score plot, ESI +: 21.56 ± 8.01
[1]; [11]
  OD: 0.576 ± 0.02
  inhibition ratio %: 80.57%
[6]
  cell morphologies: close to those of the control group

## CN(C)C(=N)N=C(N)N [metformin]
[3]
  contents of FBG, T-CHO, TG, GOT, GPT, INS, BUN, mALB and Scr: tended to be normal
[5]
  Relative distance between administration group and control group in PLS-DA score plot, ESI −: 34.94 ± 2.74
  Relative distance between administration group and control group in PLS-DA score plot, ESI +: 36.57 ± 1.53

## C[C@@H]1O[C@@H](O[C@@H]2[C@@H](O)[C@H](OCCc3ccc(O)c(O)c3)O[C@H](CO)[C@H]2OC(=O)/C=C/c2ccc(O)c(O)c2)[C@H](O)[C@H](O)[C@H]1O [verbascoside]
[3]
  contents of FBG, T-CHO, TG, GOT, GPT, INS, BUN, mALB and Scr: tended to be normal
[4]
  results of histological examination of kidney (HE, PAS mean OD): close to those of the control group
[5]
  Relative distance between administration group and control group in PLS-DA score plot, ESI −: 28.59 ± 3.33
  Relative distance between administration group and control group in PLS-DA score plot, ESI +: 31.62 ± 1.07
[1]; 5 μmol·L^−1, high glucose 30 mmol/L
  inhibition ratio %: 25.52%
[1]; 5 μmol·L^−1, high glucose 30 mmol/L, control 0.632, model 0.345
  OD: 0.418 ± 0.008
[1]; [12]
  OD: 0.457 ± 0.014
  inhibition ratio %: 39.02%
[1]; [13]
  OD: 0.501 ± 0.015
  inhibition ratio %: 54.36%
[1]; [11]
  OD: 0.557 ± 0.012
  inhibition ratio %: 73.95%
[1]; [14]
  OD: 0.559 ± 0.01
  inhibition ratio %: 74.65%
[1]; 5, 10, 25, 50, 100 μmol/L
  proliferation of HK-2 cells under a high glucose condition: could promote the proliferation of HK-2 cells under a high glucose condition, and the promotion of the proliferation was dose-dependent
[1]
  effect on the proliferation of HK-2: had an effect on inhibiting
[6]
  cell morphologies: close to those of the control group
[2]; 50 μmol/L, HK-2 cells with high-glucose induced injuries
  protein expressions of NOX1, NOX2, NOX4, α-SMA, E-cadherin, NF-κB p65, TGF-β1, Smad2, Smad3, Smad4 and Smad7: all returned to normal
[2]
  effect on the formation of EMT: had an effect on inhibiting
[7]
  mRNA expressions of NOX1, NOX2, NOX4, α-SMA, E-cadherin, NF-κB p65, TGF-β1, Smad2, Smad3, Smad4 and Smad7: all returned to normal
[8]
  expression levels of MCP-1, IL-1β, TNF-α and IL-6 in the supernatant: returned to normal
[9]
  oral bioavailability: low
[10]
  adverse effects: without causing obvious adverse effects
  renal function injury: capable of improving
